# Residues, ends and D or L forms follow the SMILES beside them.
# Tests used:
# S. aureus USA300 [1] = assay type: cell-based, Staphylococcus aureus; settings: Table 2, first S. aureus USA300 column
# Procedure, shortened: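 Broth microdilution: exponential-phase bacteria at 10^6 CFU incubated with serially diluted peptides ~20 hours at 37° C, read at 630 nm to give MICs. For S. aureus USA300, effects of up to 10% human serum, pH 6.8/7.4/8.0 and 150 mM NaCl also tested.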
# E. coli ATCC 35218 = settings: Abbassi et al. (2010); cited from earlier work
# [2] = system: E. coli ATCC 25922 and ML-35p strains; settings: Abbassi et al. (2010); cited from earlier work
# S. aureus ATCC 25923 = settings: Abbassi et al. (2010); cited from earlier work
# B. megaterium = settings: Abbassi et al. (2010); cited from earlier work
# HeLa CCL-2 cells = test: Cytotoxicity of PET-CysTetraF2W-RR (MTS); assay type: cell-based, human
# Description: HeLa CCL-2 cells from American Type Culture Collection (ATCC) were maintained in DMEM high glucose media with 4 mM L-glutamine (NyClone) and 100 U/mL penicillin, 100 μg/mL streptomycin (pen/strep; p/s) (Life Technologies), and 10% (v/v) inactivated fetal bovine serum (FBS, NyClone), DMEM with 10% FBS, p/s. Cells were grown in 5% CO2 at 37° C. and were detached from culturing dish at 100% confluency using 0.025% trypsin-EDTA (NyClone) treatment, seeded (18,000 cells/well) in 24-well plates (Corning Life Science) and grown overnight in 200 μL DMEM media until 70% confluency. Then the old media were replaced with 500 μL of fresh DMEM media and continued to cultivate for 1 hour with the surfaces with or without peptides (1.0×1.0 cm). 200 μL of the liquid content of each well was taken out and mixed with 20 μL of MTS. The plate was further incubated for another 2 hours at 37° C. To quantify the cytotoxicity, 100 μL of the solution was placed in a 96-well plate and the absorbance was measured on a ChroMate® reader (Awareness Technology) at 492 nm. For comparison, the same amounts of soluble peptides was used to treat them in the same way as described above. Water and 0.2% SDS were used as negative and positive controls, respectively.
# S. aureus USA300 [3] = test: Growth inhibition in TSB media (FIG. 15A); assay type: cell-based, Staphylococcus aureus; settings: 3.1 μM (printed 3.1 LM), 37° C.
# Description: FIGS. 15A and 15B show the growth inhibition (FIG. 15A) and propidium iodide-based membrane permeation (FIG. 15B) of S. aureus USA300 in TSB media by 3.1 μM of TetraF2W-RR and its single arginine variants (Table 8) at 37° C. with shaking at 100 rpm.
# Fluorescence spectroscopy was also used to follow bacterial killing. In brief, μL of serially diluted 10× peptide concentrations were done in 96-well coming COSTAR microtiter plates. Propidium iodide at a fixed concentration of 20 μM per well was added to each well which was finally incubated with 88 μL of S. aureus USA300 (with a final OD600 0.1) with continuous shaking at 100 rpm with meander corner well shaking, 37° C. in a FLUOstar® Omega (BMG LABTECH Inc., NC) microplate reader. The plates were read every 5 minutes for a total duration of 2 hours with excitation and emission wavelengths at 584 nm and 620 nm, respectively.
# S. aureus USA300 [4] = assay type: cell-based, Staphylococcus aureus; settings: 12.5 μM
# Description: Two types of experiments were conducted to evaluate the anti-biofilm activity of these peptides against S. aureus USA300 grown under a static condition for 24 hours to form established biofilms in presence of tryptic soy broth (TSB). The experiment was set up using a flat bottom, 96-well, polystyrene microtiter plates (Corning, COSTAR). In short, S. aureus USA300 (10^5 CFU/mL) in fresh TSB media was made from an exponentially growing culture. 200 μL of this bacterial culture was added to each well of the microtiter plates. The plates are then incubated at 37° C. for 24 hours to allow biofilm formation. Media was then carefully removed followed by washing with sterile 1×PBS to remove any unattached bacteria. Solution containing μL of 10× peptide solution and 180 μL of fresh TSB were added. The plates were again incubated at 37° C. for another 24 hours. To measure the extent of biofilm disruption by the peptides as a function of biofilm reduction, crystal violet staining was performed. Media was pipetted out and the wells were carefully washed with 200 μL of PBS to remove the loosely attached cells. Subsequently, 200 μL of 99% methanol was added for fixation and the plates were allowed to sit for 15 minutes. The plates were finally aspirated and dried. Lastly, staining was done with 200 μL of 1% crystal violet in water for 5 minutes. Excess stain was gently rinsed off with tap water, and plates were air-dried. Further, stains were solubilized in 200 μL of 33% glacial acetic acid followed by colorimetric measurement at 600 nm on a Chromate® microtiter plate reader. The amounts of biofilm growth with and without compound treatments were calculated.
# In addition, live cell contents of the peptide acted biofilms was estimated by XTT [2,3-bis(2-methyloxy-4-nitro-5-sulfophenyl)-2H-tertazolium-5-carboxanilide]assay by following the manufacturer's instructions with modifications. A 10% XTT solution in TSB media was added to each well and the plates were again incubated for 2 hours at 37° C. Absorbance at 450 nm (only media with XTT containing wells served as the blank) was obtained using Chromate® microtiter plate reader. Percentage of biofilm reduction for the peptide was plotted assuming 100% biofilm growth is achieved on the bacterial wells without peptide treatment.
# human red blood cells = test: Hemolytic ability (Example 3); assay type: cell-based; settings: concentration that causes 50% hemolysis
# Description: Hemolytic analysis of selected peptides was performed using an established protocol. Briefly, human blood cells (UNMC Blood Bank) were washed three times with phosphate buffer saline (PBS) and diluted to a 2% solution. After peptide treatment, incubation at 37° C. for one hour, and centrifugation at 13,000 rpm, aliquots of the supernatant were transferred to a fresh 96-well microplate. To assess peptide cytotoxicity, the amount of hemoglobin released was measured at 545 nm. The percent lysis was calculated by assuming 100% release when human blood cells were treated with 1% TRITON™ X-100, and 0% release when incubated with PBS buffer.
# E. coli ATCC 25922 [5] = assay type: cell-based, Escherichia coli; settings: ATCC 25922, 20 h
# Description: (§1) The antimicrobial activity of peptides was evaluated using a standard broth microdilution protocol. In brief, exponential phase bacteria at 10^6 CFU were incubated with serially diluted peptides overnight for ˜20 hours at 37° C. The plates were read on a ChroMate® 4300 Microplate Reader at 630 nm (GMI, Ramsey, Minn.).
# S. aureus USA300 [6] = assay type: cell-based, Staphylococcus aureus
# Description: as §1
# A. baumannii B2367-12 = assay type: cell-based, Acinetobacter baumannii; settings: B2367-12
# Description: (§2) Bacterial strains used in this study included Enterococcus faecium ATCC51559, Staphylococcus aureus USA300 LAC, Klebsiella pneumoniae ATCC 13883, Acinetobacter baumannii B2367-12, Pseudomonas aeruginosa PAO1, Enterobacter cloacae B2366-12 and Escherichia coli ATCC 25922, wherein the first six constituting the ESKAPE pathogens. Tryptic soy broth (TSB) for bacterial growth was obtained from BD Bioscience (Sparks, Md.).
# (§3) The antibacterial activity of peptides was evaluated using a standard broth microdilution protocol as described (Wang et al. (2012) Antimicrob. Agents Chemother., 56:845-856). In brief, 5 μl of each bacterium (stored at −80° C.) were inoculated into TSB medium (2 ml) and grown overnight. A second inoculation was made in the morning by delivering 10 μl of the overnight culture to a fresh TSB medium. After 2-3 hours growth at 37° C., 225 rpm, logarithmic phase bacterial cultures (OD600≈0.5) were diluted and partitioned into a 96-well polystyrene microplate with ˜10^5 colony forming units (CFU) per well (90 μl aliquots). After treatment with 10 μl of peptide solutions at various concentrations, microplates were incubated at 37° C. overnight and read on a ChroMate® 4300 Microplate Reader at 630 nm (GMI, Ramsey, Minn.). The medium was used as a blank where no bacteria should grow.
# E. faecium ATCC51559 = assay type: cell-based, Enterococcus faecium; settings: ATCC51559
# Description: as §2, §3
# E. coli ATCC 25922 [7] = assay type: cell-based, Escherichia coli; settings: ATCC 25922
# Description: as §2, §3
# P. aeruginosa PAO1 = assay type: cell-based, Pseudomonas aeruginosa
# Description: as §2, §3
# ESKAPE pathogens = assay type: cell-based
# Description: as §2, §3
# S. aureus USA300 LAC = assay type: cell-based, Staphylococcus aureus; settings: USA300
# Description: as §2, §3
# E. cloacae B2366-12 = assay type: cell-based, Enterobacter cloacae; settings: B2366-12
# Description: as §2, §3
smiles,measurement,setting,value
"CC[C@H](C)[C@H](NC(=O)[C@H](CCCNC(=N)N)NC(=O)[C@H](CO)NC(=O)[C@H](CC(C)C)NC(=O)[C@H](Cc1ccccc1)NC(=O)[C@H](Cc1ccccc1)NC(=O)[C@@H](N)Cc1ccccc1)C(=O)N[C@@H](Cc1ccccc1)C(N)=O [Temporin-SHf, FFFLSRIF] (H-FFFLSRIF-NH2; N-terminus and C-terminus assumed)",MIC S. aureus USA300,S. aureus USA300 [1],25 µM
same,MIC E. coli ATCC 35218,E. coli ATCC 35218,> 200 µM
same,MIC E. coli ATCC 25922 and ML-35p strains,[2],25 to 30 µM
same,MIC S. aureus ATCC 25923,S. aureus ATCC 25923,12.5 µM
same,MIC B. megaterium,B. megaterium,3 µM
CC[C@H](C)[C@H](NC(=O)[C@H](CCCNC(=N)N)NC(=O)[C@H](CCCNC(=N)N)NC(=O)[C@H](CC(C)C)NC(=O)[C@H](Cc1c[nH]c2ccccc12)NC(=O)[C@H](Cc1c[nH]c2ccccc12)NC(=O)[C@H](Cc1c[nH]c2ccccc12)NC(=O)[C@@H](N)CS)C(=O)N[C@@H](Cc1c[nH]c2ccccc12)C(N)=O [CysTetraF2W-RR] (H-CWWWLRRIW-NH2; N-terminus and C-terminus assumed),toxicity to HeLa CCL-2 cells,HeLa CCL-2 cells,nontoxic
"CC[C@H](C)[C@H](NC(=O)[C@H](CCCNC(=N)N)NC(=O)[C@H](CCCNC(=N)N)NC(=O)[C@H](CCCNC(=N)N)NC(=O)[C@H](Cc1c[nH]c2ccccc12)NC(=O)[C@H](Cc1c[nH]c2ccccc12)NC(=O)[C@@H](N)Cc1c[nH]c2ccccc12)C(=O)N[C@@H](Cc1c[nH]c2ccccc12)C(N)=O [Peptide L4R, WWWRRRIW] (H-WWWRRRIW-NH2; N-terminus assumed)",growth inhibition of S. aureus USA300,S. aureus USA300 [3],also potent
same,killing in preformed biofilms (XTT),S. aureus USA300 [4],20%
same,HL50,human red blood cells,>200 µM
same,E. coli (MIC),E. coli ATCC 25922 [5],25 µM
same,loss in activity compared to the WT,S. aureus USA300 [6]; MRSA USA300,four-fold
same,S. aureus (MIC),S. aureus USA300 [6]; S. aureus USA300,12.5 µM
"CC[C@H](C)[C@H](NC(=O)[C@H](CCCNC(=N)N)NC(=O)[C@H](CCC(N)=O)NC(=O)[C@@H](NC(=O)[C@@H](NC(=O)[C@H](CCCNC(=N)N)NC(=O)[C@H](CCCCN)NC(=O)[C@@H](N)Cc1ccccc1)[C@@H](C)CC)C(C)C)C(=O)N[C@@H](CCCCN)C(=O)N[C@@H](CC(=O)O)C(=O)N[C@@H](Cc1ccccc1)C(=O)N[C@@H](CC(C)C)C(=O)N[C@@H](CCCNC(=N)N)C(=O)N[C@@H](CC(N)=O)C(=O)N[C@@H](CC(C)C)C(=O)N[C@H](C(N)=O)C(C)C [FK-16, FKRIVQRIKDFLRNLV, reference compound] (H-FKRIVQRIKDFLRNLV-NH2; N-terminus and C-terminus assumed)",MIC AB,A. baumannii B2367-12,4.67 ± 2.2 µM
same,MIC EF,E. faecium ATCC51559,3.1 ± 0 µM
same,MIC EC,E. coli ATCC 25922 [7],4.67 ± 2.2 µM
same,MIC PA,P. aeruginosa PAO1,50 µM
same,MIC range against almost all / most of the tested strains,ESKAPE pathogens,3.1 to 12.5 µM
same,MIC SA,S. aureus USA300 LAC,4.67 ± 1.8 µM
same,MIC ECl,E. cloacae B2366-12,12.5 ± 0 µM

# Reference: patent US20190048052A1, “ANTI-MICROBIAL PEPTIDES AND COATINGS” (Board of Regents of the University of Nebraska, priority 2016, published 2019)
